# Experimental data: patent US10633409B2, “Bola-amphiphilic compounds and their uses for biomedical applications” (UNIVERSITE DE BORDEAUX, priority 2014, dated 2020)
# Tests used:
# [1] = Gelation test (tube inversion); type: physicochemical; details: aqueous dispersion 1.5 wt % in Milli-Q water, heated until dissolution (45° C.), cooled to room temperature
# Experimental: The aqueous dispersions (Milli-Q water, 18 MΩ·cm^−1) containing 1.5 wt % of compounds 5 and 6 obtained in examples 1 and 2 were heated until dissolution (at 45° C.) and gradually allowed to cool to room temperature unless otherwise stated.
# [2] = Sol-gel transition temperature (Tgel) by rheology; type: physicochemical; details: hydrogel 3% w/v, heated from 25 to 60° C. (3° C./min), oscillatory stress 5 Pa, 1 Hz
# Experimental: The determination of gel-sol transition temperature can also be determinated by rheology. The hydrogel (3% product 6 of example 2, w/v) was heated progressively from 25 to 60° C. (3° C./min). The oscillatory stress applied was set to 5 Pa at a constant frequency (1 Hz). The sol-gel transition point was taken as the temperature at which the gel became liquid. This melting temperature is reached at the intersection of the viscoelastic moduli (G′ and G″). This value is of 46° C. which is compatible with the cell culture at the gel state (37° C.).
# [3] = tested on: rat osteoblastic cells (A) or human ASCs (B); test: Cytocompatibility by Alamar Blue metabolism in cells grown in compound 6-based gels; type: cell-based; details: compound 6-based gel 3% (w/v)
# Experimental: (§1) Mesenchymal stem cells were isolated from human adipose tissue. Human subcutaneous fat was obtained from healthy patients aged 20 to 80 years old who underwent hip surgery in Bordeaux Pellegrin CHU (Bordeaux, France). Fat mass was separated from other tissues, washed with sterilized PBS, finely cut and incubated with 0.1% (w/v) collagenase type I (Worthington, Lakewood, N.J., USA) at 37° C. with gentle agitation for 1 h 30. After filtration and centrifugation, the top liquid layer was removed and the remaining Stromal Vascular Fraction (SVF) was treated for 10 min with ELB (Erythocyte Lysis Buffer; 155 mM NH4Cl (Sigma-Aldrich, St. Louis, Mo., USA), 5.7 mM K2HPO4, 7.4 mM K2HPO4-3H2O, 0.1 mm EDTA (all Sigma-Aldrich)), and then centrifuged. […]
# Cell viability was also evaluated by using the Alamar Blue metabolic activity assay. […] After this time, the fluorescence was measured at wavelengths excitation 530 nm and emission 590 nm. Triplicate samples were analyzed for each experiment. […]
# Cytocompatibility was determined by monitoring alamar blue metabolism in rat osteoblastic cells (A) or human ASCs (B) grown in compound 6-based gels. […]
# [4] = tested on: human mesenchymal stem cells (ASCs); test: Cytotoxicity by MTT test (cell metabolic activity); type: cell-based
# Experimental: as §1
# The cytotoxicity of compound 6 was evaluated by the measurement of the cell metabolic activity (MTT assay). […]
# MTT assay was performed after 72 h of incubation. […] Results were expressed as a percentage of the metabolic activity of the positive control. Absorbance was measured at a wavelength of 570 nm with background subtraction at 630 nm.
# The cytotoxicity of compound 6 was determined by MTT test to measure the metabolic activity of human mesenchymal stem cells (ASCs) 48 hours after incubation with increasing concentrations of compound 6. […]
# hASCs or D1 = test: Live/Dead staining (calcein-AM, ethidium homodimer) of cells seeded within gels; type: cell-based; details: cells seeded within gel 3% (w/v), at 2 weeks
# Experimental: For all in vitro assays, the hydrogel obtained from compound 6 was prepared at a concentration of 3% (w/v). The compound 6 powder was solubilized in PBS 1× under agitation (900 rpm) at 25° C. during 45 minutes. Then, when the gel was formed, it was left at room temperature, without agitation, during 3 to 4 hours. To allow cell seeding, the gel was heated during 30 minutes at 55° C. Once the liquid solution was obtained, it was rapidly cooled down to 37° C. and thoroughly mixed with 10 μL cell suspension at a concentration of 1 million cells per mL of gel. Finally, the cellularized hydrogel was maintained under agitation (600 rpm), at 25° C. during 45 minutes. After this period, medium was been added (250 μL/tube) and tubes were incubated at controlled atmosphere (5% CO2, 37° C.)
# […] Cells seeded within gels were incubated for 1 h at 37° C. in Hank's medium supplemented with 1.25 μL calcein-AM and 5 μL EthD-1.
Compound,gel formation (solid aggregate mass stable to inversion of the container) [1],"sol-gel transition temperature (Tgel), intersection of G′ and G″ [2] [°C]",cytocompatibility when used as cell culture medium [3],"concentrations up to which the compound is non toxic ([4]; MTT, human ASCs, tested 5 μM to 5 mM, value printed as approximate) [µM]",cytotoxicity (result in words) ([4]; summary of example 12),Live/dead staining result (hASCs or D1)
"Cc1cn([C@H]2C[C@H](O)[C@@H](Cn3cc(COCCCCCCCCCCCCO)nn3)O2)c(=O)n(Cc2cn([C@@H]3O[C@H](CO)[C@@H](O)[C@H](O)[C@H]3O)nn2)c1=O [compound 5, 5′-[4-(12-hydroxydodecanyloxy)methyl)-1H-1,2,3-triazol-1-yl]-5′-deoxy-N3-(1-((β-D-glucopyranoside)-1H-1,2,3-triazol-4-yl)methyl thymidine]",form gels,–,–,–,–,–
Cc1cn([C@H]2C[C@H](O)[C@@H](Cn3cc(COCCCCCCCCCCCCOCc4cn(C[C@H]5O[C@@H](n6cc(C)c(=O)n(Cc7cn([C@@H]8O[C@H](CO)[C@@H](O)[C@H](O)[C@H]8O)nn7)c6=O)C[C@@H]5O)nn4)nn3)O2)c(=O)n(Cc2cn([C@@H]3O[C@H](CO)[C@@H](O)[C@H](O)[C@H]3O)nn2)c1=O [compound 6],form gels,46,god cytocompatibility,≤ 1000,not cytotoxic,vast majority of green (living) cells
